Reference: PubChem BioAssay (NCI)
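In this assay, cells in 96-well plates receive the compound at five concentrations for 48 hours. Endpoints are linearly interpolated between the surrounding concentrations. At the GI50, growth is halved. TGI denotes the concentration required for complete inhibition of growth.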

Assays:
Assay in all cases: NCI anticancer screen, dose series, 48 h
786-0 renal = system: 786-0 renal
A549 NSCLC = system: A549 NSCLC
ACHN renal = system: ACHN renal
BT-549 breast = system: BT-549 breast
CAKI-1 renal = system: CAKI-1 renal
COLO 205 colon = system: COLO 205 colon
DU-145 prostate = system: DU-145 prostate
EKVX NSCLC = system: EKVX NSCLC
HCT-116 colon = system: HCT-116 colon
HCT-15 colon = system: HCT-15 colon
HL-60(TB) leukemia = system: HL-60(TB) leukemia
HOP-62 NSCLC = system: HOP-62 NSCLC
HOP-92 NSCLC = system: HOP-92 NSCLC
HS 578T breast = system: HS 578T breast
IGROV1 ovarian = system: IGROV1 ovarian
K-562 leukemia = system: K-562 leukemia
KM12 colon = system: KM12 colon
LOX IMVI melanoma = system: LOX IMVI melanoma
M14 melanoma = system: M14 melanoma
MCF7 breast = system: MCF7 breast
MDA-MB-231 breast = system: MDA-MB-231 breast
MDA-MB-435 = system: MDA-MB-435
MOLT-4 leukemia = system: MOLT-4 leukemia
NCI-H226 lung = system: NCI-H226 lung
NCI-H23 lung = system: NCI-H23 lung
NCI-H460 lung = system: NCI-H460 lung
NCI-H522 lung = system: NCI-H522 lung
NCI/ADR-RES ovarian = system: NCI/ADR-RES ovarian
OVCAR-3 ovarian = system: OVCAR-3 ovarian
OVCAR-4 ovarian = system: OVCAR-4 ovarian
OVCAR-5 ovarian = system: OVCAR-5 ovarian
OVCAR-8 ovarian = system: OVCAR-8 ovarian
PC-3 prostate = system: PC-3 prostate
RPMI-8226 leukemia = system: RPMI-8226 leukemia
RXF 393 renal = system: RXF 393 renal
SF-268 CNS = system: SF-268 CNS
SF-295 CNS = system: SF-295 CNS
SF-539 CNS = system: SF-539 CNS
SK-MEL-2 melanoma = system: SK-MEL-2 melanoma
SK-MEL-28 melanoma = system: SK-MEL-28 melanoma
SK-MEL-5 melanoma = system: SK-MEL-5 melanoma
SK-OV-3 ovarian = system: SK-OV-3 ovarian
SN12C renal = system: SN12C renal
SNB-19 CNS = system: SNB-19 CNS
SR leukemia = system: SR leukemia
SW-620 colon = system: SW-620 colon
TK-10 renal = system: TK-10 renal
U251 CNS = system: U251 CNS
UACC-257 melanoma = system: UACC-257 melanoma
UACC-62 melanoma = system: UACC-62 melanoma
UO-31 renal = system: UO-31 renal

Q: What does the source list for COc1ccc(-c2c(C#N)c(N)nc3c2COc2ccc(F)cc2-3)cc1OC?
A: GI50 (786-0 renal): 16.9 µM; TGI (786-0 renal): 46.2 µM; GI50 (A549 NSCLC): 3.81 µM; TGI (A549 NSCLC): 14.2 µM; GI50 (ACHN renal): 1.4 µM; TGI (ACHN renal): 5.44 µM; GI50 (BT-549 breast): 10.1 µM; TGI (BT-549 breast): 26.5 µM; GI50 (CAKI-1 renal): 2.18 µM; TGI (CAKI-1 renal): 8.15 µM; GI50 (COLO 205 colon): 5.79 µM; TGI (COLO 205 colon): > 100 µM; GI50 (DU-145 prostate): 8.14 µM; TGI (DU-145 prostate): 23.9 µM; GI50 (EKVX NSCLC): 4.91 µM; TGI (EKVX NSCLC): 24.8 µM; GI50 (HCT-116 colon): 6.66 µM; TGI (HCT-116 colon): 37.3 µM; GI50 (HCT-15 colon): 8.29 µM; TGI (HCT-15 colon): 52.9 µM; GI50 (HL-60(TB) leukemia): 23.2 µM; TGI (HL-60(TB) leukemia): 92.4 µM; GI50 (HOP-62 NSCLC): 14.7 µM; TGI (HOP-62 NSCLC): 39 µM; GI50 (HOP-92 NSCLC): 18 µM; TGI (HOP-92 NSCLC): > 100 µM; GI50 (HS 578T breast): 7.55 µM; TGI (HS 578T breast): 38.5 µM; GI50 (IGROV1 ovarian): 8.88 µM; TGI (IGROV1 ovarian): 65.1 µM; GI50 (K-562 leukemia): 53.6 µM; TGI (K-562 leukemia): > 100 µM; GI50 (KM12 colon): 5.83 µM; TGI (KM12 colon): > 100 µM; GI50 (LOX IMVI melanoma): 2.29 µM; TGI (LOX IMVI melanoma): 9.84 µM; GI50 (M14 melanoma): 22 µM; TGI (M14 melanoma): 98.9 µM; GI50 (MCF7 breast): 17.6 µM; TGI (MCF7 breast): > 100 µM; GI50 (MDA-MB-231 breast): 2.53 µM; TGI (MDA-MB-231 breast): 9.63 µM; GI50 (MDA-MB-435): 10.7 µM; TGI (MDA-MB-435): 37.4 µM; GI50 (MOLT-4 leukemia): > 100 µM; TGI (MOLT-4 leukemia): > 100 µM; GI50 (NCI-H226 lung): 4.54 µM; TGI (NCI-H226 lung): 20 µM; GI50 (NCI-H23 lung): 14.1 µM; TGI (NCI-H23 lung): 30.5 µM; GI50 (NCI-H460 lung): 9.03 µM; TGI (NCI-H460 lung): > 100 µM; GI50 (NCI-H522 lung): 18.9 µM; TGI (NCI-H522 lung): > 100 µM; GI50 (NCI/ADR-RES ovarian): 17.4 µM; TGI (NCI/ADR-RES ovarian): 42.2 µM; GI50 (OVCAR-3 ovarian): 2.21 µM; TGI (OVCAR-3 ovarian): 6.41 µM; GI50 (OVCAR-4 ovarian): 6.82 µM; TGI (OVCAR-4 ovarian): 63.7 µM; GI50 (OVCAR-5 ovarian): 17.2 µM; TGI (OVCAR-5 ovarian): 33.6 µM; GI50 (OVCAR-8 ovarian): 3.62 µM; TGI (OVCAR-8 ovarian): 13.2 µM; GI50 (PC-3 prostate): 17.1 µM; TGI (PC-3 prostate): > 100 µM; GI50 (RPMI-8226 leukemia): 6.61 µM; TGI (RPMI-8226 leukemia): > 100 µM; GI50 (RXF 393 renal): 20.3 µM; TGI (RXF 393 renal): 51.6 µM; GI50 (SF-268 CNS): 15.8 µM; TGI (SF-268 CNS): 56.4 µM; GI50 (SF-295 CNS): 3.27 µM; TGI (SF-295 CNS): 10.9 µM; GI50 (SF-539 CNS): 3.38 µM; TGI (SF-539 CNS): 11 µM; GI50 (SK-MEL-2 melanoma): 34.5 µM; TGI (SK-MEL-2 melanoma): > 100 µM; GI50 (SK-MEL-28 melanoma): 29.9 µM; TGI (SK-MEL-28 melanoma): > 100 µM; GI50 (SK-MEL-5 melanoma): 12 µM; TGI (SK-MEL-5 melanoma): 37.5 µM; GI50 (SK-OV-3 ovarian): 8.44 µM; TGI (SK-OV-3 ovarian): 36.8 µM; GI50 (SN12C renal): 6.22 µM; TGI (SN12C renal): 20.9 µM; GI50 (SNB-19 CNS): 4.37 µM; TGI (SNB-19 CNS): 23.7 µM; GI50 (SR leukemia): 2.15 µM; TGI (SR leukemia): > 100 µM; GI50 (SW-620 colon): 9.21 µM; TGI (SW-620 colon): > 100 µM; GI50 (TK-10 renal): 3.35 µM; TGI (TK-10 renal): 24 µM; GI50 (U251 CNS): 10.3 µM; TGI (U251 CNS): 22.7 µM; GI50 (UACC-257 melanoma): 18.9 µM; TGI (UACC-257 melanoma): 60.5 µM; GI50 (UACC-62 melanoma): 7.99 µM; TGI (UACC-62 melanoma): 23 µM; GI50 (UO-31 renal): 17.3 µM; TGI (UO-31 renal): 57.9 µM
